# Values quoted from earlier work as cited in patent US11878071B2, “Product for dyeing keratinous material, containing aminosilicone, a chromophoric compound, preservative and a fatty constituent” (Henkel AG & Co. KGaA, priority 2019, dated 2024).
# Conditions: 25° C.
row,solubility in water,Compound
1,more than 20 % by weight,CCN(Cc1cccc(S(=O)(=O)[O-])c1)c1ccc(C(=C2C=CC(=[N+](CC)Cc3cccc(S(=O)(=O)[O-])c3)C=C2)c2ccccc2S(=O)(=O)[O-])cc1.[Na+].[Na+] [Acid Blue 9]
2,2500 µg/mL,"Nc1cc(S(=O)(=O)[O-])cc2cc(S(=O)(=O)[O-])c(N=Nc3ccccc3)c(O)c12.[Na+].[Na+] [Acid Red 33, diantrium salt of 5-amino-4-hydroxy-3-(phenylazo)-naphthalene-2,7-disulphonate]"
3,highly soluble in water,"O=C([O-])C1=NN(c2ccc(S(=O)(=O)[O-])cc2)C(=O)C1N=Nc1ccc(S(=O)(=O)[O-])cc1.[Na+].[Na+].[Na+] (centres unmarked) [Acid Yellow 23, trisodium salt of 4,5-dihydro-5-oxo-1-(4-sulfophenyl)-4-((4-sulfophenyl)azo)-1H-pyrazole-3-carboxylic acid]"

row,Compound,solubility in water
1,"O=S(=O)([O-])c1ccc(N=Nc2c(O)ccc3ccccc23)cc1.[Na+] [Acid Orange 7, sodium salt of 4-[(2-hydroxy-1-naphthyl)azo]benzene sulphonate]",more than 7 g/L
2,"O=C([O-])c1c(Cl)c(Cl)c(Cl)c(Cl)c1-c1c2c(Br)cc(=O)c(Br)c-2oc2c(Br)c(O)cc(Br)c12.O=C([O-])c1c(Cl)c(Cl)c(Cl)c(Cl)c1-c1c2c(Br)cc(=O)c(Br)c-2oc2c(Br)c(O)cc(Br)c12.[Na+].[Na+] [Acid Red 92, disodium salt of 3,4,5,6-tetrachloro-2-(1,4,5,8-tetrabromo-6-hydroxy-3-oxoxanthen-9-yl)benzoic acid]",greater than 10 g/L
